This is an account of results in patent US10307466B2, “Composition comprising sophorolipid, physiologically active substance and oil or fat, and method for producing the same” (SARAYA CO., LTD., priority 2014, dated 2019).

The nature of this series: Binding to phosphatidylcholine-coated silica beads (TRANSIL Intestinal Absorption Kit). Particulars: compared with the physiologically active substance alone taken as 1; for Relative amount of physiologically active substance bound to the beads, Example (sophorolipid): substance emulsified with sophorolipid; for Relative amount of physiologically active substance bound to the beads, Comparative Example (sucrose fatty acid ester): substance emulsified with sucrose fatty acid ester. The method, then: In the evaluation herein, the binding of substances to silica beads coated with a phospholipid (phosphatidylcholine) was compared. A higher binding indicates a higher cell membrane transport and a higher intestinal absorption.
An aqueous phase was prepared and the pH was adjusted with a pH adjuster to a pH value of 6. The aqueous phase and an oil phase were heated to 50 to 60° C. The aqueous phase was added to the oil phase. The mixture was stirred with a homogenizer (HG-200, As One Corporation) at a high speed of 10,000 rpm for 10 minutes to give an emulsion.
The affinity with phosphatidylcholine-coated silica beads (TRANSIL Intestinal Absorption Kit, SOVICELL GMBH) was assessed. A volume of 200 μl of PBS (phosphate buffered saline) containing the beads was added to each tube, and 20 μl of each of the compositions was added. The mixture was agitated with a test tube mixer for 12 minutes. The beads were allowed to settle, and the supernatant was collected and diluted to 10-fold. The fluorescence intensity of the supernatant was measured with a spectrophotometer (Hitachi F-2700, excitation wavelength: 494 nm, fluorescence wavelength: 521 nm).
A volume of 200 μl of PBS containing the beads was added to each tube, and 20 μl of each of the compositions was added. The mixture was agitated with a test tube mixer for 12 minutes. The beads were allowed to settle, and the supernatant was removed. The beads were washed with PBS, and 200 μl of methanol was added to elute oil red from the beads. The absorbance of the oil red solution in methanol was measured at 510 nm with an ultraviolet spectrophotometer (Shimadzu UV-1200). The relative amount of the pigment of Example 14 or Comparative Example 4 bound to the beads was calculated, with the obtained value of an oil red solution (Comparative Example 5) taken as 1.
A volume of 200 μl of PBS containing the beads was added to each tube, and 20 μl of each of the compositions was added. The mixture was agitated with a test tube mixer for 12 minutes. The beads were allowed to settle, and the supernatant was removed. The beads were washed with PBS, and 200 μl of methanol was added to elute tocopherol from the beads. The amount of tocopherol was measured by HPLC (Shimadzu LC-10A series). The relative amount of tocopherol of Example 15 or Comparative Example 6 bound to the beads was calculated, with the obtained value of a tocopherol solution (Comparative Example 7) taken as 1.
A volume of 200 μl of PBS containing the beads was added to each tube, and 20 μl of each of the compositions was added. The mixture was agitated with a test tube mixer for 12 minutes. The beads were allowed to settle, and the supernatant was removed. The beads were washed with PBS, and 200 μl of hexane was added to elute DHA from the beads. The amount of DHA was measured by gas chromatography (Shimadzu GC-2014 series).
The relative amount of DHA of Example 16 or Comparative Example 8 bound to the beads was calculated, with the obtained value of a DHA solution (Comparative Example 9) taken as 1.
GC was used for the analysis of eicosapentaenoic acid and linoleic acid. […] An atomic absorption spectrophotometer was used for the analysis of zinc gluconate, copper gluconate, and iron citrate.
The calculated value was expressed by the symbols A, B and C. The affinities of the physiologically active substances were assessed by comparing the cases where each physiologically active substance was emulsified with a sucrose fatty acid ester or the sophorolipid and where each of the physiologically active substances was used alone.

Consider Copper gluconate, for which the “Relative amount of physiologically active substance bound to the beads, Example (sophorolipid)” value was “B (affinity of not less than 2.0-fold and less than 5.0-fold)”; the “Relative amount of physiologically active substance bound to the beads, Comparative Example (sucrose fatty acid ester)” value was “C (affinity of less than 2.0-fold)”.
As to Iron citrate, the “Relative amount of physiologically active substance bound to the beads, Example (sophorolipid)” value is “B (affinity of not less than 2.0-fold and less than 5.0-fold)”; the “Relative amount of physiologically active substance bound to the beads, Comparative Example (sucrose fatty acid ester)” value is “C (affinity of less than 2.0-fold)”.
Zinc gluconate: the “Relative amount of physiologically active substance bound to the beads, Example (sophorolipid)” value is “B (affinity of not less than 2.0-fold and less than 5.0-fold)”; the “Relative amount of physiologically active substance bound to the beads, Comparative Example (sucrose fatty acid ester)” value was “C (affinity of less than 2.0-fold)”.
